Measurements: US7566808B2, “Management of ophthalmologic disorders, including macular degeneration” (President and Fellows of Harvard College, priority 2004, dated 2009)

Experiments:
[1] = tested on: Sprague Dawley rats; settings: reference [24]; cited from earlier work
[2] = target: T1, purified bovine mRPE65 (Bos taurus, UniProt Q28175); assay: Fluorescence titration of mRPE65 with TDT and TDH; settings: 0.952 μM mRPE65, phosphate buffered saline pH 7.4, 1% CHAPS; read-out: KD for binding to mRPE65
T1 construct: mRPE65 was extracted and purified from the bovine eye cups using a procedure described earlier; tissue W. L. Lawson Co; host or cells: bovine eye cups (retinal pigment epithelium)
Description: Purification of mRPE65: mRPE65 was extracted and purified from the bovine eye cups using a procedure described earlier. Protein purity was established by silver staining and Western blotting (1:4000 primary antibody—1 h at room temperature and 1:4000 secondary antibody 0.5 h at room temperature). Buffers were changed by dialysis in the request buffer overnight in a slide-a-lyser™ cassette from Pierce (10 KDa MWCO). RPE65 solutions were concentrated with an Amicon Ultra™ centrifugal filtration device (30 KDa-cutoff) from Millipore Corp. The final protein solution contained 100 mM phosphate buffered saline (150 mM NaCl) pH 7.4 and 1% CHAPSO. The protein concentration was measured by a modified Lowry method using the Bio-Rad DC protein assay protocol.
Fluorescence binding assays: RPE65 in PBS, 1% CHAPS, pH 7.4 was used in the fluorometric titration studies. All titrations were performed at 25° C. The samples in PBS buffer were excited at 280 nm and the fluorescence was scanned from 300 to 500 nm. Fluorescence measurements, using 450 μL quartz cuvettes with a 0.5 cm path length, were made at 25° C. on a Jobin Yvon Instruments, Fluoromax 2 employing the right-angle detection method.
The fluorescence of the protein solution was measured after equilibrating it at 25° C. for 10 min. […] The binding constant (KD) was calculated from the fluorescence intensity as described before (17,19). […]

[3] = tested on: Abca4−/− mice; assay: A2E accumulation after chronic treatment of Abca4−/− mice; assay type: in vivo; settings: 50 mg/kg i.p. twice a week for 2 months
Description: Tissue extraction and HPLC analysis: Posterior eye cups were pooled and homogenized in PBS using a tissue grinder. An equal volume of a mixture of chloroform/methanol (2:1) was added and the sample was extracted three times. To remove insoluble material, extracts were filtered through cotton and passed through a reversed phase (C18 Sep-Pak, Millipore) cartridge with 0.1% TFA in methanol. After removing solvent by evaporation under gas, the extract was dissolved in methanol containing 0.1% TFA, for HPLC analysis. For quantification of A2E, a Waters Alliance 2695 HPLC was employed with a Atlantis® dC18 column (Waters, 4.6×150 mm, 3 μm) and the following gradient of acetonitrile in water (containing 0.1% trifluoroacetic acid): 90-100% (0-10 min), 100% acetonitrile (10-20 min), and a flow rate of 0.8 mL/min with monitoring at 430 nm. The injection volume was 10 μL. […] Levels of A2E and iso-A2E were determined by reference to an external standard of HPLC-purified A2E/iso-A2E. […]
As shown in FIGS. 29A-D, both compounds, but especially TDT, were highly efficient in lowering A2E accumulation. FIGS. 29A-D show quantitation of A2E and iso-A2E in eye cups of Abcr −/− mice. […] FIG>29D: A2E/iso-A2E quantitation from integrated peak areas normalized to external standards. Values expressed as picomoles per eye and are based on single samples obtained by pooling 4 eyes.

[4] = Tolerability in treated animals; assay type: in vivo; settings: even when administered every 48 h
Source text: With respect to the pharmacology of the isoprenoid mRPE65 antagonists, it should be noted that the effects of both TDT and TDH are substantially more persistent than with 13-RA, probably because they are more hydrophobic than the retinoic acids. An increase in hydrophobicity tends to slow down rates of elimination of drugs.

T1 sequence (Q28175 whole entry): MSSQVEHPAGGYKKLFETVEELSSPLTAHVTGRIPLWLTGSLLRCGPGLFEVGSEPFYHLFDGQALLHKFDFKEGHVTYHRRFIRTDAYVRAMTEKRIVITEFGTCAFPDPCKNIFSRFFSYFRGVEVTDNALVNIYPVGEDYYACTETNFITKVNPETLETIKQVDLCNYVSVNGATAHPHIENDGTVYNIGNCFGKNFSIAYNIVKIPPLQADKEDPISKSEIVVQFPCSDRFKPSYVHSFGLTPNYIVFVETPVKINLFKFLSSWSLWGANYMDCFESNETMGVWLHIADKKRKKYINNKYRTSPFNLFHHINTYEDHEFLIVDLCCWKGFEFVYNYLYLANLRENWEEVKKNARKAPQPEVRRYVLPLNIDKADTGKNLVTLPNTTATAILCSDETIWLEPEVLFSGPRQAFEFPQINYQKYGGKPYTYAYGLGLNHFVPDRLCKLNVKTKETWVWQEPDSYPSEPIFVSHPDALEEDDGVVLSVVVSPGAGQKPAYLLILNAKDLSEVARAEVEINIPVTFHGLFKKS

| SMILES | inhibition of 11-cis-retinal regeneration after bleaching (literature) [1] | Kd [2] [nM] | effect on A2E accumulation [3] | tolerability / signs of toxicity [4] |
| --- | --- | --- | --- | --- |
| CC1=C(/C=C/C(C)=C/C=C/C(C)=C\C(=O)O)C(C)(C)CCC1 [13-cis-retinoic acid, reference compound] | approximately 4 fold | – | – | – |
| CCCCCCCCCCCCCCCCNC(=O)/C=C(\C)CC/C=C(\C)CCC=C(C)C [TDH, 3,7,11-Trimethyl-dodeca-2,6,10-trienoic acid hexadecylamide] | – | 96 ± 14 | profound effects on limiting A2E accumulation | no obvious signs of toxicity and/or distress |
| CCCCCCCCCCC(=O)/C=C(\C)CC/C=C(\C)CCC=C(C)C [TDT, 13,17,21-Trimethyl-docosa-12,16,20-trien-11-one] | – | 58 ± 5 | profound effects on limiting A2E accumulation | no obvious signs of toxicity and/or distress |
